Laboratory results reported in patent publication EP0183129A1, “Quinolonecarboxylic acid derivatives” (KYORIN PHARMACEUTICAL CO., LTD., priority 1984, dated 1986).
≈ marks a conversion by molar mass, not a printed value. Where a name gives a salt, the structure may show the parent alone. Read-outs that look alike come from different tables or passages of the source.

Experiments:
[1] = test system: Morganella morganii IID 602; assay: In vitro antibacterial activity, MIC (standard strain); format: cell-based; conditions: IID602; Morganella morganii IID 602; 10^6 cells/ml; standard strain; read-out: MIC
[2] = test system: Escherichia coli NIHJ JC-2; assay: as above; format: cell-based; conditions: Escherichia coli, NIHJJC2, Escherichia coli NIHJ JC-2; 10^6 cells/ml; standard strain; read-out: MIC
[3] = test system: Streptococcus pyogenes S-8; assay: as above; format: cell-based; conditions: S8; Streptococcus pyogenes S-8; 10^6 cells/ml; standard strain; read-out: MIC
S. pneumoniae 2950 = assay: In vitro antibacterial activity, MIC (clinical isolates); format: cell-based; conditions: Streptococcus pneumoniae; S. pneumoniae 2950; 10^6 cells/ml; clinical isolate; read-out: MIC
S. pneumoniae 3227 = assay: as above; format: cell-based; conditions: Streptococcus pneumoniae; S. pneumoniae 3227; 10^6 cells/ml; clinical isolate; read-out: MIC
[4] = test system: S. aureus IID 670 (Terajima); assay: In vitro antibacterial activity, MIC (standard strain); format: cell-based, Staphylococcus aureus; conditions: Staphylococcus aureus
[5] = test system: Enterobacter cloacae IID 977; assay: as above; format: cell-based; conditions: Enterobacter cloacae, IID977, Enterobacter cloacae IID 977; 10^6 cells/ml; standard strain; read-out: MIC
P. mirabilis IID 994 = assay: as above; format: cell-based; conditions: Proteus mirabilis, IID994
[6] = test system: Serratia marcescens IID 618; assay: as above; format: cell-based; conditions: Serratia marcescens, IID618, Serratia marcescens IID 618; 10^6 cells/ml; standard strain; read-out: MIC
S. pyogenes 4372 = assay: In vitro antibacterial activity, MIC (clinical isolates); format: cell-based; conditions: Streptococcus pyogenes; S. pyogenes 4372; 10^6 cells/ml; clinical isolate; read-out: MIC
S. faecalis 402 = assay: as above; format: cell-based; conditions: Enterococcus faecalis; S. faecalis 402; 10^6 cells/ml; clinical isolate; read-out: MIC
S. agalactiae 4368 = assay: as above; format: cell-based; conditions: Streptococcus agalactiae; S. agalactiae 4368; 10^6 cells/ml; clinical isolate; read-out: MIC
S. agalactiae 4394 = assay: as above; format: cell-based; conditions: Streptococcus agalactiae; S. agalactiae 4394; 10^6 cells/ml; clinical isolate; read-out: MIC
S. faecalis 214 = assay: as above; format: cell-based; conditions: Enterococcus faecalis; S. faecalis 214; 10^6 cells/ml; clinical isolate; read-out: MIC
S. faecalis 401 = assay: as above; format: cell-based; conditions: Enterococcus faecalis; S. faecalis 401; 10^6 cells/ml; clinical isolate; read-out: MIC
[7] = test system: Proteus vulgaris IFO 3167; assay: In vitro antibacterial activity, MIC (standard strain); format: cell-based; conditions: IFO3167
[8] = test system: Staphylococcus aureus 209 P; assay: as above; format: cell-based
B. fragilis 25285 = assay: as above; format: cell-based, Bacteroides fragilis; conditions: Bacteroides fragilis, 25285, B. fragilis 25285; 10^6 cells/ml; standard strain; read-out: MIC
[9] = test system: Clostridium perfringens KYA 13123; assay: microbe, parasite or virus in culture; format: cell-based; conditions: KYA13123
S. agalactiae 4468 = assay: In vitro antibacterial activity, MIC (clinical isolates); format: cell-based; conditions: Streptococcus agalactiae; S. agalactiae 4468; 10^6 cells/ml; clinical isolate; read-out: MIC
S. pyogenes IID 692 = assay: In vitro antibacterial activity, MIC (standard strain); format: cell-based; conditions: Streptococcus pyogenes, IID692; S. pyogenes IID 692; 10^6 cells/ml; standard strain; read-out: MIC
P. aeruginosa IFO 12689 = assay: as above; format: cell-based, Pseudomonas aeruginosa; conditions: Pseudomonas aeruginosa, IFO12689; P. aeruginosa IFO 12689; 10^6 cells/ml; standard strain; read-out: MIC
S. pneumoniae IID 552 = assay: as above; format: cell-based; conditions: Streptococcus pneumoniae, IID552; S. pneumoniae IID 552; 10^6 cells/ml; standard strain; read-out: MIC
[10] = test system: Klebsiella pneumoniae KY(GN)6445; assay: as above; format: cell-based; conditions: Klebsiella pneumoniae KY(GN)6445; 10^6 cells/ml; standard strain; read-out: MIC
[11] = IID670, S. aureus IID 670 (Terajima), 10^6 cells/ml, standard strain, read-out: MIC
[12] = P. mirabilis IID 994, 10^6 cells/ml, standard strain, read-out: MIC
[13] = Proteus vulgaris IFO 3167, 10^6 cells/ml, standard strain, read-out: MIC
[14] = Staphylococcus aureus 209 P, 10^6 cells/ml, standard strain, read-out: MIC

Row | SMILES | MIC [1] | MIC [2] | MIC [3] | MIC (S. pneumoniae 2950) | MIC (S. pneumoniae 3227) | MIC [5] | MIC [6] | MIC (S. pyogenes 4372) | MIC (S. faecalis 402) | MIC (S. agalactiae 4368) | MIC (S. agalactiae 4394) | MIC (S. faecalis 214) | MIC (S. faecalis 401) | MIC (B. fragilis 25285) | MIC [9] | MIC (S. agalactiae 4468) | MIC (S. pyogenes IID 692) | MIC (P. aeruginosa IFO 12689) | MIC (S. pneumoniae IID 552) | MIC [10] | also measured
1 | CCNCC1CCN(c2cc3c(cc2F)c(=O)c(C(=O)O)cn3C2CC2)C1.Cl (stereo not drawn) [Example 7, 1-Cyclopropyl-7-(3-ethylaminomethyl-1-pyrrolidinyl)-6-fluoro-1,4-dihydro-4-oxo-3-quinolinecarboxylic acid hydrochloride] | 0.39 µg/mL | 0.05 µg/mL | 0.39 µg/mL | 0.39 µg/mL | 0.39 µg/mL | 0.39 µg/mL | 0.39 µg/mL | 0.2 µg/mL | 0.78 µg/mL | 0.39 µg/mL | 0.39 µg/mL | 0.78 µg/mL | 0.78 µg/mL | 25 µg/mL | 0.2 µg/mL | 0.39 µg/mL | 0.39 µg/mL | 3.13 µg/mL | 0.39 µg/mL | 0.1 µg/mL | MIC [4, 11]: 0.1 µg/mL; MIC (P. mirabilis IID 994; [12]): 0.2 µg/mL; MIC [7, 13]: 0.05 µg/mL; MIC [8, 14]: 0.1 µg/mL
2 | CNCC1CCN(c2cc3c(cc2F)c(=O)c(C(=O)O)cn3C2CC2)C1 (stereo not drawn) [Example 9, 1-Cyclopropyl-6-fluoro-1,4-dihydro-7-(3-methylaminomethyl-l-pyrrolidinyl)-4-oxo-3-quinolinecarboxylic acid hydrochloride] | 0.78 µg/mL | 0.05 µg/mL | 0.2 µg/mL | 0.78 µg/mL | 0.39 µg/mL | 0.39 µg/mL | 0.39 µg/mL | 0.2 µg/mL | 0.78 µg/mL | 0.2 µg/mL | 0.78 µg/mL | 0.39 µg/mL | 0.78 µg/mL | 25 µg/mL | 1.56 µg/mL | 0.39 µg/mL | 0.2 µg/mL | 3.13 µg/mL | 0.39 µg/mL | 0.1 µg/mL | MIC [4, 11]: 0.2 µg/mL; MIC (P. mirabilis IID 994; [12]): 0.39 µg/mL; MIC [7, 13]: 0.1 µg/mL; MIC [8, 14]: 0.2 µg/mL
3 | CCCNCC1CCN(c2c(F)cc3c(=O)c(C(=O)O)cn(C4CC4)c3c2F)C1 (stereo not drawn) [Example 10, 1-Cyclopropyl-6,8-difluoro-1,4-dihydro-4-oxo-7-(3-n-propylaminomethyl-l-pyrrolidinyl)-3-quinolinecarboxylic acid hydrochloride] | 0.025 µg/mL | 0.05 µg/mL | 0.39 µg/mL | 0.39 µg/mL | 0.2 µg/mL | 0.2 µg/mL | 0.2 µg/mL | 0.39 µg/mL | 0.39 µg/mL | 0.39 µg/mL | 0.78 µg/mL | 0.39 µg/mL | 0.78 µg/mL | 0.78 µg/mL | 0.39 µg/mL | 0.39 µg/mL | 0.39 µg/mL | 3.13 µg/mL | 0.39 µg/mL | 0.05 µg/mL | MIC [4, 11]: 0.05 µg/mL; MIC (P. mirabilis IID 994; [12]): 0.025 µg/mL; MIC [7, 13]: 0.025 µg/mL; MIC [8, 14]: 0.05 µg/mL
4 | CC(C)NCC1CCN(c2c(F)cc3c(=O)c(C(=O)O)cn(C4CC4)c3c2F)C1.Cl (stereo not drawn) [Example 11, 1-Cyclopropyl-6,8-difluoro-1,4-dihydro-7-(3-isopropylaminomethyl-1-pyrrolidinyl)-4-oxo-3-quinolinecarboxylic acid hydrochloride] | 0.39 µg/mL | 0.05 µg/mL | 0.2 µg/mL | 0.2 µg/mL | 0.39 µg/mL | 0.39 µg/mL | 0.39 µg/mL | 0.2 µg/mL | 0.39 µg/mL | 0.2 µg/mL | 0.39 µg/mL | 0.39 µg/mL | 0.39 µg/mL | 0.78 µg/mL | 0.2 µg/mL | 0.2 µg/mL | 0.2 µg/mL | 3.13 µg/mL | 0.39 µg/mL | 0.1 µg/mL | MIC [4, 11]: 0.05 µg/mL; MIC (P. mirabilis IID 994; [12]): 0.1 µg/mL; MIC [7, 13]: 0.05 µg/mL; MIC [8, 14]: 0.05 µg/mL
5 | NCC1CCN(c2c(F)cc3c(=O)c(C(=O)O)cn(C4CC4)c3c2Br)C1 (stereo not drawn) [Example 15, 7-(3-Aminomethyl-l-pyrrolidinyl)-8-bromo-l-cyclopropyl-6-fluoro-1,4-dihydro-4-oxo-3-quinolinecarboxylic acid] | 0.1 µg/mL (≈ 0.236 µM) | ≤ 0.0063 µg/mL | 0.05 µg/mL (≈ 0.118 µM) | 0.05 µg/mL (≈ 0.118 µM) | 0.05 µg/mL (≈ 0.118 µM) | 0.05 µg/mL (≈ 0.118 µM) | 0.1 µg/mL (≈ 0.236 µM) | 0.05 µg/mL (≈ 0.118 µM) | 0.2 µg/mL (≈ 0.471 µM) | 0.05 µg/mL (≈ 0.118 µM) | 0.2 µg/mL (≈ 0.471 µM) | 0.2 µg/mL (≈ 0.471 µM) | 0.2 µg/mL (≈ 0.471 µM) | ≤ 0.05 µg/mL | 0.1 µg/mL (≈ 0.236 µM) | 0.05 µg/mL (≈ 0.118 µM) | 0.05 µg/mL (≈ 0.118 µM) | 0.78 µg/mL (≈ 1.84 µM) | 0.05 µg/mL (≈ 0.118 µM) | 0.025 µg/mL (≈ 0.0589 µM) | MIC ([4]; IID670): 0.0125 µg/mL (≈ 0.0295 µM); MIC (P. mirabilis IID 994): 0.0125 µg/mL (≈ 0.0295 µM); MIC ([7]; Proteus vulgaris): 0.0125 µg/mL (≈ 0.0295 µM); MIC ([8]; Staphylococcus aureus, 209P): 0.0125 µg/mL (≈ 0.0295 µM)
